Key:
[1] = Bioavailability of esters of methionine after spot dose to cows (Example 2); type: in vivo, cow
Description: The bioavailability of the esters was evaluated.
The samples were stored in a freezer.
The procedure of (b1) was repeated using 72 g of methionine ethyl ester hydrochloride, prepared as detailed above
• cyclohexyl methioninate: 122 g • methionine methyl ester hydrochloride: 73 g • sec butyl methioninate: 72 g

[2] = bovine, in vivo
Description: Spot doses of the following amounts of the esters prepared as detailed above, equating to 50 g of methionine equivalent, were given to 2 cows in the manner described in Example 2(b1) above. • methyl ester of HMB: 64.8 g • ethyl ester of HMB: 74.8 g • isopropyl ester of HMB: 80.5 g • n-butyl ester of HMB: 96 g • cyclohexyl ester of HMB: 97.5 g • see butyl ester of HMB: 79 g The concentration of methionine and HMB was measured over a period of 27 hours.
56 g of methyl methioninate and 72 g of n-propyl methioninate (providing an equivalent 50 g of DL-methionine), prepared as detailed above, were supplied to two cows as a spot dose at 7.45 am just before the morning feed.
The ration given to the cows was distributed as two equal meals at 08.00 hours and 16.00 hours comprised 7 kg of hay and 2 kg concentrate.
Samples of blood were taken by jugular vein puncture 09.00, 10.00, 11.00, 13.00 and 15.00 hours on the day where the ester was given to the animal and at 09.00, 12.00 and 15.00 hours on the day before and two days after supply.
The plasma from each sample was isolated from the blood samples by centrifuging the blood at 3000 revs per minute for 10 minutes. The samples were stored in a freezer. The assay for methionine was carried out according to the standard procedure of Moore and Stein.
The results were plotted using the conventional AUC method wherein the areas under the curves are calculated to obtain the bioavailability values for each ester.

Structure (SMILES) | [met] methionine concentration in blood plasma ([1]; bovine, in vivo, 0 h) | [met] methionine concentration in blood plasma ([1]; bovine, in vivo, 1 h) | [met] methionine concentration in blood plasma ([1]; bovine, in vivo, 2 h) | [met] methionine concentration in blood plasma ([1]; bovine, in vivo, 3 h) | [met] methionine concentration in blood plasma ([1]; bovine, in vivo, 5 h) | [met] methionine concentration in blood plasma ([1]; bovine, in vivo, 7 h) | [met] methionine concentration in blood plasma ([1]; bovine, in vivo, 28 h) | Bioavailability % ([1]; bovine, in vivo, po) | methionine equivalent provided to the cow by rumen absorption ([1]; bovine, in vivo) | time after intake within which methionine is provided to the blood stream ([1]; bovine, in vivo) | Bioavailability [2] | [met] methionine concentration in blood plasma ([1]; 0 hours after administration, spot dose equivalent to 50 g methionine, 2 cows) | [met] methionine concentration in blood plasma ([1]; 1 hour after administration, spot dose equivalent to 50 g methionine, 2 cows) | [met] methionine concentration in blood plasma ([1]; 2 hours after administration, spot dose equivalent to 50 g methionine, 2 cows) | [met] methionine concentration in blood plasma ([1]; 3 hours after administration, spot dose equivalent to 50 g methionine, 2 cows) | [met] methionine concentration in blood plasma ([1]; 5 hours after administration, spot dose equivalent to 50 g methionine, 2 cows) | [met] methionine concentration in blood plasma ([1]; 7 hours after administration, spot dose equivalent to 50 g methionine, 2 cows) | [met] methionine concentration in blood plasma ([1]; 28 hours after administration, spot dose equivalent to 50 g methionine, 2 cows) | Bioavailability % ([1]; AUC method, spot dose equivalent to 50 g methionine)
COC(=O)[C@@H](N)CCSC [Methyl methioninate, methyl methioninate] | 0.34 mg/100 g of blood plasma | 4.08 mg/100 g of blood plasma | 3.87 mg/100 g of blood plasma | 3.25 mg/100 g of blood plasma | 2.57 mg/100 g of blood plasma | 2.51 mg/100 g of blood plasma | 0.41 mg/100 g of blood plasma | 51% | – | – | – | – | – | – | – | – | – | – | –
CSCC[C@H](N)C(=O)OC(C)(C)C [Tertiary butyl methioninate, tertiary butyl methioninate] | 0.37 mg/100 g of blood plasma | 4.84 mg/100 g of blood plasma | 4.87 mg/100 g of blood plasma | 4.98 mg/100 g of blood plasma | 4.39 mg/100 g of blood plasma | 4.19 mg/100 g of blood plasma | 0.76 mg/100 g of blood plasma | 80% | approximately 80% | less than one | – | – | – | – | – | – | – | – | –
CSCCC(O)C(=O)OC1CCCCC1 (centres unmarked) [cyclohexyl ester of HMB] | – | – | – | – | – | – | – | – | – | – | 20% | – | – | – | – | – | – | – | –
CCC(C)OC(=O)C(O)CCSC (centres unmarked) [Sec butyl ester of HMB] | – | – | – | – | – | – | – | – | – | – | 31% | – | – | – | – | – | – | – | –
CCCCCCCCCCCCOC(=O)[C@@H](N)CCSC [Dodecyl methioninate, dodecyl methioninate] | 0.33 mg/100 g of blood plasma | 0.38 mg/100 g of blood plasma | 0.37 mg/100 g of blood plasma | 0.37 mg/100 g of blood plasma | 0.44 mg/100 g of blood plasma | 0.45 mg/100 g of blood plasma | 0.28 mg/100 g of blood plasma | 3% | – | – | – | – | – | – | – | – | – | – | –
CSCC[C@H](N)C(=O)OC1CCCCC1 [Cyclohexyl methioninate, cyclohexyl methioninate] | 0.29 mg/100 g of blood plasma | 2.55 mg/100 g of blood plasma | 2.27 mg/100 g of blood plasma | 1.88 mg/100 g of blood plasma | 1.61 mg/100 g of blood plasma | 1.55 mg/100 g of blood plasma | 0.38 mg/100 g of blood plasma | 35% | – | – | – | – | – | – | – | – | – | – | –
CCOC(=O)[C@H](CCSC)NC(C)=O [ethyl N-acetyl methioninate] | – | – | – | – | – | – | – | – | – | – | – | 0.26 mg/100 g of blood plasma | 1.84 mg/100 g of blood plasma | 1.97 mg/100 g of blood plasma | 1.53 mg/100 g of blood plasma | 1.12 mg/100 g of blood plasma | 0.86 mg/100 g of blood plasma | 0.36 mg/100 g of blood plasma | 20%
CCCCOC(=O)C(O)CCSC (centres unmarked) [n-butyl ester of HMB] | – | – | – | – | – | – | – | – | – | – | 17% | – | – | – | – | – | – | – | –
CCOC(=O)[C@@H](N)CCSC.Cl [Methionine ethyl ester hydrochloride, methionine ethyl ester hydrochloride] | 0.36 mg/100 g of blood plasma | 2.78 mg/100 g of blood plasma | 2.60 mg/100 g of blood plasma | 2.30 mg/100 g of blood plasma | 2.00 mg/100 g of blood plasma | 1.43 mg/100 g of blood plasma | 0.38 mg/100 g of blood plasma | 30% | – | – | – | – | – | – | – | – | – | – | –
COC(=O)[C@@H](N)CCSC.Cl [Methionine methyl ester hydrochloride, methionine methyl ester hydrochloride] | 0.41 mg/100 g of blood plasma | 1.96 mg/100 g of blood plasma | 1.43 mg/100 g of blood plasma | 1.27 mg/100 g of blood plasma | 1.18 mg/100 g of blood plasma | 1.22 mg/100 g of blood plasma | 0.43 mg/100 g of blood plasma | 25% | – | – | – | – | – | – | – | – | – | – | –
CCCCOC(=O)[C@@H](N)CCSC [n-butyl methioninate] | 0.32 mg/100 g of blood plasma | 1.10 mg/100 g of blood plasma | 0.74 mg/100 g of blood plasma | 0.63 mg/100 g of blood plasma | 0.62 mg/100 g of blood plasma | 0.61 mg/100 g of blood plasma | 0.27 mg/100 g of blood plasma | 8% | – | – | – | – | – | – | – | – | – | – | –
CCCOC(=O)[C@@H](N)CCSC [n-propyl methioninate] | 0.32 mg/100 g of blood plasma | 2.29 mg/100 g of blood plasma | 1.70 mg/100 g of blood plasma | 1.55 mg/100 g of blood plasma | 1.27 mg/100 g of blood plasma | 1.14 mg/100 g of blood plasma | 0.32 mg/100 g of blood plasma | 22% | – | – | – | – | – | – | – | – | – | – | –
CCC(C)OC(=O)[C@@H](N)CCSC (some centres unmarked) [sec butyl methioninate] | 0.35 mg/100 g of blood plasma | 2.75 mg/100 g of blood plasma | 2.49 mg/100 g of blood plasma | 2.39 mg/100 g of blood plasma | 1.75 mg/100 g of blood plasma | 1.56 mg/100 g of blood plasma | 0.44 mg/100 g of blood plasma | 28% | – | – | – | – | – | – | – | – | – | – | –
CCCCCCOC(=O)[C@@H](N)CCSC [n-hexyl methioninate] | 0.31 mg/100 g of blood plasma | 1.22 mg/100 g of blood plasma | 0.92 mg/100 g of blood plasma | 0.94 mg/100 g of blood plasma | 1.06 mg/100 g of blood plasma | 1.07 mg/100 g of blood plasma | 0.35 mg/100 g of blood plasma | 17% | – | – | – | – | – | – | – | – | – | – | –
CCCCCCCCCCCCCCCCCCOC(=O)[C@@H](N)CCSC [n-octadecyl methioninate] | 0.37 mg/100 g of blood plasma | 0.37 mg/100 g of blood plasma | 0.37 mg/100 g of blood plasma | 0.34 mg/100 g of blood plasma | 0.37 mg/100 g of blood plasma | 0.31 mg/100 g of blood plasma | 0.38 mg/100 g of blood plasma | 1% | – | – | – | – | – | – | – | – | – | – | –
